Results reported in patent US20090030024A1, “THIAZOLES AS FUNGICIDES” (priority 2005, published 2009).
Like-named read-outs stand apart in the source and are kept apart here.

Assays:
Leptosphaeria nodorum = Leptosphaeria nodorum test (wheat)/protective; type: in vivo; settings: Parastagonospora nodorum, 240 h, protective spray, active compound concentration 1000 ppm, evaluation 10 days after inoculation, read-out: efficacy
Experimental: Leptosphaeria Nodorum Test (Wheat)/Protective [table] […] After the spray coating has dried on, the plants are sprayed with a spore suspension of Leptosphaeria nodorum. The plants remain in an incubation cabin at 20° C. and 100% relative atmospheric humidity for 48 hours. The plants are placed in a greenhouse at a temperature of about 20° C. and a relative atmospheric humidity of 80%.

[1] = logP determination by retention times (calibration with alkan-2-ones)
Fusarium graminearum = assay: whole plant or invertebrate; type: in vivo; settings: in Hordeum vulgare, 96 h, read-out: efficacy
Phytophthora infestans = assay: whole plant or invertebrate; type: in vivo; settings: in Solanum lycopersicum, 168 h, read-out: efficacy
[2] = logP, * HPLC reversed-phase C18, 40° C., mobile phase 0.1% aqueous formic acid and acetonitrile, linear gradient 10% to 95% acetonitrile

SMILES | pest or weed control at 1000 ppm (Leptosphaeria nodorum) [%] | chromatographic logP [1] | pest or weed control at 1000 ppm (Fusarium graminearum) [%] | pest or weed control at 500 ppm (Phytophthora infestans) [%] | chromatographic logP [1, 2]
CC(=O)c1cccc(Nc2nccc(-c3sc(C4CC4)nc3C)n2)c1 [Example 7, 1-(3-{[4-(2-cyclopropyl-4-methyl-1,3-thiazol-5-yl)pyrimidin-2-yl]amino}phenyl)ethanone] | ≥ 70 | 2.88 | – | – | –
CCc1nc(C)c(-c2ccnc(Nc3cccc(C(C)=O)c3)n2)s1 [Example 9, 1-(3-{[4-(2-ethyl-4-methyl-1,3-thiazol-5-yl)pyrimidin-2-yl]amino}phenyl)ethanone] | – | 2.7 | ≥ 70 | – | –
Cc1nc(C)c(-c2ccnc(Nc3ccc(N(C)C)c(Cl)c3)n2)s1 [Example 62, 2-chloro-N4-[4-(2,4-dimethyl-1,3-thiazol-5-yl)pyrimidin-2-yl]-N1,N1-dimethylbenzene-1,4-diamine] | ≥ 70 | 2.06 | – | – | –
CCc1nc(C)c(-c2ccnc(Nc3ccc(NC(=O)OCCOC)cc3)n2)s1 [Example 73, 2-methoxyethyl-(4-{[4-(2-ethyl-4-methyl-1,3-thiazol-5-yl)pyrimidin-2-yl]amino}phenyl)carbamate] | ≥ 70 | 2.36 | – | ≥ 70 | –
Cc1nc(C(C)C)sc1-c1ccnc(Nc2cccc(O)c2)n1 [Example 151, 3-{[4-(2-isopropyl-4-methyl-1,3-thiazol-5-yl)pyrimidin-2-yl]amino}phenol] | ≥ 70 | 2.42 | ≥ 70 | – | –
COc1cc(Nc2nccc(-c3sc(C)nc3C)n2)cc(OC)c1OC [Example 182, 4-(2,4-dimethyl-1,3-thiazol-5-yl)-N-(3,4,5-trimethoxyphenyl)pyrimidine-2-amine] | ≥ 70 | 2.1 | ≥ 70 | ≥ 70 | –
Cc1nc(C)c(-c2ccnc(Nc3ccccc3)n2)s1 [Example 190, 4-(2,4-dimethyl-1,3-thiazol-5-yl)-N-phenylpyrimidine-2-amine] | ≥ 70 | 2.4 | ≥ 70 | – | –
COc1cc(Nc2nccc(-c3sc(C4CC4)nc3C)n2)cc(OC)c1OC [Example 222, 4-(2-cyclopropyl-4-methyl-1,3-thiazol-5-yl)-N-(3,4,5-trimethoxyphenyl)pyrimidine-2-amine] | – | 2.77 | ≥ 70 | – | –
CCc1nc(C)c(-c2ccnc(Nc3cc(OC)c(OC)c(OC)c3)n2)s1 [Example 235, 4-(2-ethyl-4-methyl-1,3-thiazol-5-yl)-N-(3,4,5-trimethoxyphenyl)pyrimidine-2-amine] | – | 2.61 | ≥ 70 | ≥ 70 | –
CCc1nc(C)c(-c2ccnc(Nc3ccc(OC)nc3)n2)s1 [Example 240, 4-(2-ethyl-4-methyl-1,3-thiazol-5-yl)-N-(6-methoxypyridin-3-yl)pyrimidine-2-amine] | ≥ 70 | 2.33 | ≥ 70 | – | –
CCc1nc(C)c(-c2ccnc(Nc3ccccc3)n2)s1 [Example 243, 4-(2-ethyl-4-methyl-1,3-thiazol-5-yl)-N-phenylpyrimidine-2-amine] | – | 3.07 | ≥ 70 | ≥ 70 | –
COc1cc(Nc2nccc(-c3sc(C(C)C)nc3C)n2)cc(OC)c1OC [Example 244, 4-(2-isopropyl-4-methyl-1,3-thiazol-5-yl)-N-(3,4,5-trimethoxyphenyl)pyrimidine-2-amine] | ≥ 70 | 2.99 | ≥ 70 | – | –
COc1ccc(Nc2nccc(-c3sc(C(C)C)nc3C)n2)cn1 [Example 247, 4-(2-isopropyl-4-methyl-1,3-thiazol-5-yl)-N-(6-methoxypyridin-3-yl)pyrimidine-2-amine] | ≥ 70 | 2.76 | ≥ 70 | ≥ 70 | –
Cc1nc(C(C)C)sc1-c1ccnc(Nc2ccccc2)n1 [Example 251, 4-(2-isopropyl-4-methyl-1,3-thiazol-5-yl)-N-phenylpyrimidine-2-amine] | ≥ 70 | 3.55 | ≥ 70 | ≥ 70 | –
CCOC(=O)c1cccc(Nc2nccc(-c3sc(C(C)C)nc3C)n2)c1 [Example 375, ethyl-3-{[4-(2-isopropyl-4-methyl-1,3-thiazol-5-yl)pyrimidin-2-yl]amino}benzoate] | – | 3.83 | ≥ 70 | – | –
CC(=O)Nc1ccc(Nc2nccc(-c3sc(C(C)C)nc3C)n2)cc1 [Example 461, N-(4-{[4-(2-isopropyl-4-methyl-1,3-thiazol-5-yl)pyrimidin-2-yl]amino}phenyl)acetamide] | ≥ 70 | – | ≥ 70 | – | 2.15
Cc1nc(C2CC2)sc1-c1ccnc(Nc2ccc(CNC(=O)OC(C)(C)C)cc2)n1 [Example 630, tert-butyl-(4-{[4-(2-cyclopropyl-4-methyl-1,3-thiazol-5-yl)pyrimidin-2-yl]amino}benzyl)carbamate] | – | – | – | ≥ 70 | 3.46
Cc1nc(C)c(-c2ccnc(Nc3ccc(F)cc3F)n2)s1 [Example 759, N-(2,4-difluorophenyl)-4-(2,4-dimethyl-1,3-thiazol-5-yl)pyrimidine-2-amine] | ≥ 70 | – | – | – | 2.8
